This passage reports Activity results from ChEMBL document CHEMBL1649487, “Molecular characteristics of travel-related extended-spectrum-beta-lactamase-producing Escherichia coli isolates from the Calgary Health Region” (2009).

What all share (assay type): functional
In assay [1] the test system is Escherichia coli. Description: Antimicrobial activity against Extended-spectrum beta-lactamase producing Escherichia coli clinical isolate assessed as resistant isolate.
Assay [2] deals with Escherichia coli. As to the kind of experiment: Antimicrobial activity against Extended-spectrum beta-lactamase producing Escherichia coli clinical isolate assessed as resistant isolate in presence of beta-lactamase inhibitor Tazobactam.
Assay [3] relates to Escherichia coli. As to the kind of experiment: Antimicrobial activity against Extended-spectrum beta-lactamase producing Escherichia coli clinical isolate assessed as resistant isolate in presence of beta-lactamase inhibitor clavulanic acid.

For `O=C1CN(/N=C/c2ccc([N+](=O)[O-])o2)C(=O)N1` [NITROFURANTOIN], the Activity in the assay with Escherichia coli [1] amounted to 7%.

Take `NCC[C@H](O)C(=O)N[C@@H]1C[C@H](N)[C@@H](O[C@H]2O[C@H](CN)[C@@H](O)[C@H](O)[C@H]2O)[C@H](O)[C@H]1O[C@H]1O[C@H](CO)[C@@H](O)[C@H](N)[C@H]1O` [AMIKACIN]: the Activity with Escherichia coli [1] stood at 1%.

Take `NC[C@H]1O[C@H](O[C@H]2[C@H](O)[C@@H](O[C@H]3O[C@H](CO)[C@@H](O)[C@H](N)[C@H]3O)[C@H](N)C[C@@H]2N)[C@H](N)C[C@@H]1O` [TOBRAMYCIN]: in the assay with Escherichia coli [1], the Activity worked out at 50%.

`CCN1CCN(C(=O)N[C@@H](C(=O)N[C@@H]2C(=O)N3[C@@H]2SC(C)(C)[C@@H]3C(=O)O)c2ccccc2)C(=O)C1=O` [PIPERACILLIN]: in the assay with Escherichia coli [2], the Activity was 47%.

On to `CC1(C)S[C@@H]2[C@H](NC(=O)[C@H](N)c3ccc(O)cc3)C(=O)N2[C@H]1C(=O)O` [AMOXICILLIN], for which the Activity in the assay on Escherichia coli [3] was 74%.

GENTAMICIN: the Activity in the assay with Escherichia coli [1] came out at 42%.
